Consider ten compounds from PubChem BioAssay (NCI).

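Each compound was tested at five concentrations against cells in 96-well plates for 48 hours. GI50 = concentration required for 50% inhibition of growth. Definition used: TGI = concentration required for complete inhibition of growth.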

Some test systems named below: HS 578T breast; SF-539 CNS; HOP-62 NSCLC; LOX IMVI melanoma; HL-60(TB) leukemia; SF-295 CNS; NCI/ADR-RES ovarian; PC-3 prostate; M19-MEL melanoma.
Holding throughout (test): NCI anticancer screen, dose series, 48 h

Consider `CCC1(O)C(=O)OCc2c1cc1n(c2=O)Cc2cc3cc(N)ccc3nc2-1` (stereo not drawn), for which the TGI in the assay on HS 578T breast was more than 95.2 µM; with SF-539 CNS it was less than 0.01 µM; with HOP-62 NSCLC it was 0.357 µM; in the assay with LOX IMVI melanoma, 0.059 µM; with HL-60(TB) leukemia it was 0.0145 µM; in the assay on SF-295 CNS, 0.36 µM. The values for the TGI in the assay with NCI/ADR-RES ovarian and in the assay with PC-3 prostate were 0.266 µM and more than 100 µM, respectively.
As for `COc1cc2c(c(OC)c1OC)-c1ccc(SC)c(=O)cc1[C@@H](NC1OC(CO)C(O)C(O)C1O)CC2` (stereo partly drawn), the GI50 in the assay with HS 578T breast was 0.0425 µM; in the assay on SF-539 CNS it was 0.0243 µM; in the assay with LOX IMVI melanoma, 0.037 µM; in the assay with HL-60(TB) leukemia it was 0.0227 µM; with SF-295 CNS, 0.0338 µM; in the assay with NCI/ADR-RES ovarian, 0.0556 µM. Also, the GI50 in the assay with PC-3 prostate is 0.0347 µM. The TGI in the assay with HS 578T breast is 61 µM; with SF-539 CNS, 0.0703 µM; in the assay with HOP-62 NSCLC it was more than 100 µM; with LOX IMVI melanoma it was more than 100 µM; in the assay with HL-60(TB) leukemia it was 0.0666 µM; with SF-295 CNS, more than 100 µM. Besides, the TGI in the assay on NCI/ADR-RES ovarian and in the assay with PC-3 prostate was more than 100 µM throughout.
Consider `CC(=O)c1c(C(F)(F)F)n([O-])c2ccc(C)cc2[n+]1=O`, for which the GI50 in the assay on HS 578T breast is 3.43 µM; with SF-539 CNS, 1.78 µM; in the assay on HOP-62 NSCLC, 3.64 µM; with LOX IMVI melanoma, 3.29 µM; in the assay on HL-60(TB) leukemia, 1.92 µM; in the assay on SF-295 CNS it was 5.71 µM. Moreover, the figures for the GI50 with NCI/ADR-RES ovarian and in the assay with PC-3 prostate were 3.34 µM and 1.34 µM, respectively. The TGI in the assay on HS 578T breast is more than 58.5 µM; in the assay on SF-539 CNS, 5.1 µM; in the assay on HOP-62 NSCLC, 21.9 µM; in the assay with LOX IMVI melanoma, more than 44.2 µM; with HL-60(TB) leukemia it was 10.5 µM; in the assay with SF-295 CNS it was more than 44.2 µM. Besides, the TGI in the assay with NCI/ADR-RES ovarian is more than 35.5 µM; with PC-3 prostate, 14.1 µM.
With `Cn1cc(-c2nonc2-c2cn(C)c3ccccc23)c2ccccc21`, the GI50 with HS 578T breast was 0.508 µM; in the assay on SF-539 CNS, 0.559 µM; in the assay on HOP-62 NSCLC, 1.25 µM; in the assay with LOX IMVI melanoma, 1.24 µM; with HL-60(TB) leukemia, 0.483 µM; in the assay with SF-295 CNS it was 0.42 µM. Besides, the GI50 with NCI/ADR-RES ovarian was 0.626 µM; in the assay with PC-3 prostate it was 1.42 µM. In addition, the TGI is 24.6 µM with HS 578T breast; 2.19 µM with SF-539 CNS; more than 72.7 µM in the assay with HOP-62 NSCLC; more than 100 µM in the assay with LOX IMVI melanoma; 1.72 µM with HL-60(TB) leukemia; more than 100 µM in the assay with SF-295 CNS. Besides, the TGI in the assay with NCI/ADR-RES ovarian and with PC-3 prostate was more than 100 µM throughout.
As to `COc1ccc2cc(-c3c(-c4ccncc4)nc(-c4ccc(S(C)=O)cc4)n3C)ccc2c1` (stereo not drawn), the GI50 in the assay on HS 578T breast is 13.8 µM; in the assay with SF-539 CNS, more than 25 µM; with HOP-62 NSCLC it was more than 21.1 µM; with LOX IMVI melanoma, more than 23.4 µM; in the assay on HL-60(TB) leukemia, 18.3 µM; with SF-295 CNS it was more than 22.4 µM. Also, the GI50 in the assay on NCI/ADR-RES ovarian is more than 22.9 µM; in the assay on PC-3 prostate, more than 21.3 µM. In addition, the TGI with HS 578T breast, in the assay on SF-539 CNS, in the assay with HOP-62 NSCLC, with LOX IMVI melanoma, in the assay on HL-60(TB) leukemia and in the assay with SF-295 CNS was more than 25 µM in each case. In addition, the TGI in the assay with NCI/ADR-RES ovarian and with PC-3 prostate was more than 25 µM in each case.
Take `COc1ccc(/C=N/NC(=O)Cn2c(-c3ccc(S(C)(=O)=O)cc3)nc3cc(Cl)ccc32)cc1`: the GI50 in the assay on HS 578T breast was 1.77 µM; in the assay with SF-539 CNS, 0.855 µM; with HOP-62 NSCLC, 1.42 µM; with LOX IMVI melanoma, 1.4 µM; in the assay on HL-60(TB) leukemia, 0.446 µM; in the assay on SF-295 CNS, 1.47 µM. Moreover, the GI50 in the assay with NCI/ADR-RES ovarian was 0.956 µM; in the assay with PC-3 prostate, 0.674 µM. For the same compound, the TGI in the assay on HS 578T breast was more than 50 µM; in the assay on SF-539 CNS, 3.35 µM; with HOP-62 NSCLC, more than 50 µM; in the assay on LOX IMVI melanoma, more than 50 µM; with HL-60(TB) leukemia, 7.3 µM; with SF-295 CNS, more than 50 µM. Also, the TGI in the assay on NCI/ADR-RES ovarian and in the assay with PC-3 prostate was more than 50 µM in each case.
As to `COc1cc(/C=C/[N+](=O)[O-])cc(Br)c1OC`, the GI50 in the assay with HS 578T breast was 2.9 µM; in the assay with SF-539 CNS it was 2.49 µM; with HOP-62 NSCLC, 3.32 µM; in the assay on LOX IMVI melanoma, 0.899 µM; with HL-60(TB) leukemia, 1.62 µM; with SF-295 CNS, 2.64 µM. In addition, the GI50 is 3.62 µM in the assay with NCI/ADR-RES ovarian and 3.5 µM with PC-3 prostate. Moreover, the TGI in the assay on HS 578T breast is 15.9 µM; with SF-539 CNS, 6.62 µM; in the assay with HOP-62 NSCLC, 10.1 µM; in the assay on LOX IMVI melanoma, 2.18 µM; with HL-60(TB) leukemia, more than 100 µM; with SF-295 CNS, 9.88 µM. The TGI stood at 19.5 µM in the assay with NCI/ADR-RES ovarian and 13.2 µM with PC-3 prostate.
Take `CCn1c2ccccc2c2cc(/C=C(/C#N)C(N)=O)ccc21`: the GI50 is 5.69 µM in the assay with HS 578T breast; 4.81 µM in the assay with HOP-62 NSCLC; 14.4 µM in the assay with LOX IMVI melanoma; 4.76 µM in the assay on HL-60(TB) leukemia; 3.42 µM in the assay with SF-295 CNS; 11.2 µM in the assay with NCI/ADR-RES ovarian. In the assay on PC-3 prostate, the GI50 was 21.6 µM. For the same compound, the TGI in the assay with HS 578T breast is 39.7 µM; in the assay on SF-539 CNS it was 6.61 µM; in the assay on HOP-62 NSCLC, 41.8 µM; in the assay with LOX IMVI melanoma, more than 100 µM; in the assay with HL-60(TB) leukemia, more than 67.3 µM; with SF-295 CNS, 30 µM. In addition, the TGI was 88.1 µM in the assay on NCI/ADR-RES ovarian and more than 100 µM with PC-3 prostate.
As for `COc1ccc(C=O)c(NC(=O)C(C)C)c1`, the TGI was more than 100 µM with SF-539 CNS, more than 100 µM in the assay with LOX IMVI melanoma, 49.5 µM in the assay with M19-MEL melanoma and more than 100 µM in the assay on SF-295 CNS.
On to `C[CH2][Pb]([CH2]C)([CH2]C)[O]C(=O)c1ccc2ccccc2n1`, for which the GI50 with HS 578T breast, in the assay with SF-539 CNS, in the assay on HOP-62 NSCLC, with LOX IMVI melanoma, in the assay with HL-60(TB) leukemia and with SF-295 CNS was more than 10 µM each time. The GI50 in the assay with NCI/ADR-RES ovarian and in the assay on PC-3 prostate was more than 10 µM each time. Moreover, the TGI in the assay with HS 578T breast, with SF-539 CNS, in the assay on HOP-62 NSCLC, in the assay with LOX IMVI melanoma, in the assay with HL-60(TB) leukemia and in the assay with SF-295 CNS was more than 10 µM in each case. The TGI in the assay on NCI/ADR-RES ovarian and in the assay on PC-3 prostate was more than 10 µM in each case.
